Data published in patent publication US8258119B2, “Anti-cancer drugs and uses relating thereto for metastatic malignant melanoma and other cancers” (Kasina Laila Innova Pharmaceuticals, priority 2008, dated 2012).
In brackets after ≈: the same amount, converted by molar mass.

What was measured:
Assay type in all cases: cell-based
[1] = system: Human umbilical vein endothelial cells (HUVEC); assay: In vitro capillary formation assay; conditions: HUVEC on Cultrex, 16 hours
Procedure: In vitro capillary formation assay was performed with Human umbilical vein endothelial cells (HUVEC), cultured on 10 mg/ml basement membrane extract (BME-Cultrex®, R&D Systems, USA) bed. The protocol of in vitro endothelial tube formation assay was the same as described earlier with some modifications (44). Briefly, four hundred microliters of Cultrex was coated at 4° C. in each well of 24-well culture plate and allowed to gel at 37° C. for 1 h. HUVECs were plated at a density of 7.5×10^4 cells per well with […] of DMEM supplemented with 10% fetal bovine serum and 4.5 g/l D-glucose. The cells were then treated with either DTIC or Compound 6 at desired concentration as indicated for 16 hours. Vehicle control cultures received only 0.1% DMSO. Pictures were taken under a Nikon Eclipse TS 100 microscope equipped with a Nikon Coolpix camera.

B16F0 cells = assay: B16 F0 mouse melanoma cell colony formation assay; conditions: B16F0, 192 h, 8 days, read-out: B16 colony growth inhibition; for inhibition at 100 µg/mL: 100 μg/ml
Procedure: Clone formation efficiency of the Compound 6 and DTIC was tested by following the procedure described earlier with some modifications (41). Briefly, B16F0 cells were harvested and seeded into 6-well plates (100 cells/ml). The cells were allowed to grow for 2 days and thereafter, the cells were incubated with DMEM containing either 0.1% DMSO or 100 μg/ml DTIC or 50 μg/ml and 100 μg/ml of Compound 6 for further 8 days. Fresh medium containing test agents was replaced at every 24 h. Finally, the wells were washed three times with PBS and fixed in methanol for 15 min. The cells were stained with Giemsa stain and observed under microscope. The image of the stained wells were captured digitally (Kodak Image Station 4000MM, Carestream Health Inc., New Haven, Conn.) and number of colonies were counted and analyzed by using NIH Image J software.

[2] = system: MIA-PaCa2 human pancreas tumor cells; assay: MTT cell proliferation assay in MIA-PaCa2 cells; conditions: MIA PaCa-2, read-out: 50% of inhibitory concentration, IC50 MIA-PaCa2
Procedure: (§1) MTT [3-(4,5-dimethylthiazol-2-yl)-2,5-diphenyltetrazolium bromide] incorporation based cell proliferation assay was performed using standard procedure with some modifications (38). The cytotoxic efficacy of the test compounds were evaluated in human malignant melanoma A2058 cells by MTT cell proliferation assay kit (Roche Applied Sciences, Germany). The assay was carried out according to the instruction provided by the vendor. Briefly, equal numbers of cells was plated in 96-well flat-bottomed plates in 100 μl of medium and were exposed to either DTIC or its derivative compounds at various concentrations up to 150 μg/ml for a period of three days. Vehicle control culture wells received only a maximum of 0.5% DMSO. Thereafter, 0.5 mg/ml of MTT reagent was added to each well and the microplate was incubated further for 4 h at 37° C. in presence of 5% CO2. Finally, the cells were solubilized by adding solubilizing solution and allowed to incubate at 37° C. overnight. After complete solubilization of the formazan crystals the absorbance was read at 540 nm in a microplate reader (BioRad, USA). The results (mean OD±SD) obtained from quadruplicate wells were used in calculation to determine the inhibition of cell proliferation (50% inhibitory concentration, IC50) of the test compounds.
Anti-tumor growth potential of Compound 1 and Compound 6 were evaluated in MCF-7 human breast tumor cells, MIA-PaCa2 human pancreas tumor cells and DU145 human prostate tumor cells by using MTT based cell proliferation studies as described earlier (example 19). The results (mean OD±SD) obtained from quadruplicate wells were used in calculation to determine the inhibition of cell proliferation (50% of inhibitory concentration, IC50) of the test compounds (Table 4).

[3] = system: A2058, human malignant melanoma cells; assay: MTT cell proliferation assay in A2058 cells; conditions: A2058, 72 h, three days exposure
Procedure: as §1

[4] = system: B16F0 mouse melanoma cells; assay: LDH leakage cytotoxicity assay in B16F0 cells; conditions: treatment concentration 100 μg/ml
Procedure: From the data obtained from the MTT assay (Table J), compound 1, compound 6 and compound 13 have been selected and their cytotoxicity potential has been further validated in LDH leakage assay. […] Cytotoxicity potential of DTIC and its derivative compounds were evaluated by measuring the leaked lactate dehydrogenase (LDH) into the culture supernatant (LDH Cytotoxicity Detection Roche Applied Sciences, Germany). The leaked LDH is directly proportional to the cell damage done by the cytotoxic compounds. In brief, cells were treated with test compounds at various concentrations and incubated for 48 h. Vehicle control culture wells received only a maximum of 0.5% DMSO. The cell free culture supernatants were mixed with catalyst and dye solution and allowed to incubate for 15 min at room temperature. Finally, the reaction was stopped and the optical density was measured at 492 nm in a microplate reader (BioRad, USA). […]
Comparative cytotoxicity potential of DTIC and Compound 6 on B16F0 mouse melanoma cells and A375 human melanoma cells were further evaluated by measuring the leaked lactate dehydrogenase (LDH) into the culture supernatant (LDH Cytotoxicity Detection Kit^Plus, Roche Applied Sciences, Germany), following the methodology described earlier (Example 20). […]

[5] = system: B16F0 mouse melanoma cells; assay: MTT cell proliferation assay in B16F0 cells; conditions: B16F0, 72 h, 3 days, read-out: 50% of inhibitory concentration, IC50 in B16 F0 cells
Procedure: as §1, with “Thereafter, 0.5 mg/ml of MTT reagent was added to each well and the microplate was incubated further for 4 h at 37° C. in presence of 5% CO2. Finally, the cells were solubilized by adding solubilizing solution and allowed to incubate at 37° C. overnight.” left out, “The results (mean OD±SD) obtained from quadruplicate wells were used in calculation to determine the inhibition of cell proliferation (50% inhibitory concentration, IC50) of the test compounds.” left out
The comparative anti-tumor growth potential of DTIC and Compound 6 was further tested in B16F0 mouse melanoma cells and A375 human melanoma cells by using MTT based cell proliferation assay following the methodology described earlier (Example 19). […] After adding the MTT reagent, the cells were solubilized and the intracellular formazan formation was calorimetrically read at 540 nm in a microplate reader (BioRad, USA). […]

| IC50 [2] [µg/mL] | IC50 [3] [µg/mL] | IC50 [5] [µg/mL] | Structure (SMILES) | capillary formation [1] | inhibition at 100 µg/mL (B16F0 cells) [%] | % increase in LDH secretion with respect to vehicle treated control in B16 F0 cells [4] [%] | inhibition at 50 µg/mL (B16F0 cells; 50 μg/ml) [%] |
| --- | --- | --- | --- | --- | --- | --- | --- |
| 203 (≈ 1110 µM) | 68.1 (≈ 374 µM) | 360 (≈ 1980 µM) | CN(C)/N=N/c1[nH]cnc1C(N)=O [DTIC, 5-(3,3-dimethyl-1-trizeno)-imidazole-4-carboxamide, reference compound] | promoted capillary formation | 37.6 | 5.7 |  |
| 81.9 (≈ 411 µM) | 53.6 (≈ 269 µM) | 57.6 (≈ 289 µM) | CN(C)/N=N/c1ccsc1C(=O)O [Compound 6, 3-[(dimethylamino)diazenyl]thiophene-2-carboxylic acid] | inhibition of capillary formation in a dose dependent manner | 68.7 | 61.5 | 55.2 |
